Test results published in ChEMBL document CHEMBL5154842, “Unique Carbazole-Oxadiazole Derivatives as New Potential Antibiotics for Combating Gram-Positive and -Negative Bacteria” (J Med Chem, 2022).
In brackets after ≈: the same amount, converted by molar mass. Activity calls are given as the source filed them. The rule behind the calls is not given here.

Legend:
[1] = tested on: Acinetobacter baumannii; experiment: Antibacterial activity against Acinetobacter baumannii assessed as inhibition of bacterial growth incubated for 24 hrs by CLSI protocol based two fold serial dilution method; assay type: functional
[2] = tested on: Staphylococcus aureus; experiment: Antibacterial activity against methicillin-resistant Staphylococcus aureus N315 assessed as inhibition of bacterial growth incubated for 24 hrs by CLSI protocol based two fold serial dilution method; assay type: functional
[3] = tested on: Enterococcus faecalis; experiment: Antibacterial activity against Enterococcus faecalis assessed as inhibition of bacterial growth incubated for 24 hrs by CLSI protocol based two fold serial dilution method; assay type: functional
[4] = tested on: Staphylococcus aureus; experiment: Antibacterial activity against Staphylococcus aureus 25923 assessed as inhibition of bacterial growth incubated for 24 hrs by CLSI protocol based two fold serial dilution method; assay type: functional
[5] = tested on: Klebsiella pneumoniae; experiment: Antibacterial activity against Klebsiella pneumonia assessed as inhibition of bacterial growth incubated for 24 hrs by CLSI protocol based two fold serial dilution method; assay type: functional
[6] = tested on: Pseudomonas aeruginosa; experiment: Antibacterial activity against Pseudomonas aeruginosa ATCC 27853 assessed as inhibition of bacterial growth incubated for 24 hrs by CLSI protocol based two fold serial dilution method; assay type: functional
[7] = tested on: Staphylococcus aureus; experiment: Antibacterial activity against Staphylococcus aureus 29213 assessed as inhibition of bacterial growth incubated for 24 hrs by CLSI protocol based two fold serial dilution method; assay type: functional
[8] = tested on: Escherichia coli; experiment: Antibacterial activity against Escherichia coli assessed as inhibition of bacterial growth incubated for 24 hrs by CLSI protocol based two fold serial dilution method; assay type: functional
[9] = tested on: Staphylococcus aureus; experiment: Antibacterial activity against Staphylococcus aureus assessed as inhibition of bacterial growth incubated for 24 hrs by CLSI protocol based two fold serial dilution method; assay type: functional
[10] = tested on: Pseudomonas aeruginosa; experiment: Antibacterial activity against Pseudomonas aeruginosa assessed as inhibition of bacterial growth incubated for 24 hrs by CLSI protocol based two fold serial dilution method; assay type: functional
[11] = tested on: Escherichia coli; experiment: Antibacterial activity against Escherichia coli 25922 assessed as inhibition of bacterial growth incubated for 24 hrs by CLSI protocol based two fold serial dilution method; assay type: functional
[12] = Hemolytic activity in human RBC assessed as hemolysis at 1 to 32 ug/ml measured after 60 mins by microplate reader assay relative to control; assay type: toxicity, cell-based, Erythrocyte; conditions: red blood cells (erythrocytes), at 1 to 32 µg/mL, dose 1-32 µg/ml, read-out: Activity
[13] = tested on: Staphylococcus aureus; experiment: Antibacterial activity against methicillin-resistant Staphylococcus aureus N315 assessed as inhibition of bacterial growth at 0.25 to 64 ug/ml incubated for 24 hrs by Alamar blue assay; assay type: functional, organism-based; conditions: dose 0.25-64 µg/ml
[14] = tested on: Staphylococcus aureus; experiment: Antibacterial activity against methicillin-resistant Staphylococcus aureus N315 assessed as change in susceptibility at sub-MIC treated over 9 serial passages measured after 9 days by resistance development assay; assay type: functional, organism-based; conditions: time 9.0 day
[15] = tested on: Staphylococcus aureus; experiment: Antibacterial activity against methicillin-resistant Staphylococcus aureus N315 assessed as inhibition of bacterial growth at 0.5 to 16 ug/ml measured after 24 hrs by microplate reader assay; assay type: functional, organism-based; conditions: dose 0.5-16 µg/ml

Structure (SMILES) | MIC [1] | MIC [2] | MIC [3] | MIC [4] | MIC [5] | MIC [6] | MIC [7] | MIC [8] | MIC [9] | MIC [10] | MIC [11] | hemolysis at 1 h [12] | Activity [13] | Activity [14] | Activity [15]
CCN(CC)CCOc1cccc2c1c1ccccc1n2Cc1nnc(S)o1 | 256 µg/mL (≈ 646 µM) | 128 µg/mL (≈ 323 µM) | 4 µg/mL (≈ 10.1 µM) | 256 µg/mL (≈ 646 µM) | 256 µg/mL (≈ 646 µM) | 2 µg/mL (≈ 5.04 µM) | 256 µg/mL (≈ 646 µM) | 256 µg/mL (≈ 646 µM) | 256 µg/mL (≈ 646 µM) | 256 µg/mL (≈ 646 µM) | 256 µg/mL (≈ 646 µM) |  |  |  | 
CCSc1nnc2c3ccccc3n(Cc3nnc(S)o3)c2n1 | 256 µg/mL (≈ 743 µM) | 256 µg/mL (≈ 743 µM) | 256 µg/mL (≈ 743 µM) | 256 µg/mL (≈ 743 µM) | 256 µg/mL (≈ 743 µM) | 256 µg/mL (≈ 743 µM) | 256 µg/mL (≈ 743 µM) | 256 µg/mL (≈ 743 µM) | 256 µg/mL (≈ 743 µM) | 256 µg/mL (≈ 743 µM) | 256 µg/mL (≈ 743 µM) |  |  |  | 
c1ccc2c(c1)[nH]c1cccc(OCc3nnn[nH]3)c12 | 128 µg/mL (≈ 483 µM) | 0.5 µg/mL (≈ 1.88 µM) | 64 µg/mL (≈ 241 µM) | 128 µg/mL (≈ 483 µM) | 64 µg/mL (≈ 241 µM) | 0.5 µg/mL (≈ 1.88 µM) | 128 µg/mL (≈ 483 µM) | 128 µg/mL (≈ 483 µM) | 128 µg/mL (≈ 483 µM) | 128 µg/mL (≈ 483 µM) | 128 µg/mL (≈ 483 µM) |  |  |  | 
Sc1nnc(Cn2c3ccccc3c3c(OCC4CCCC4)cccc32)o1 | 2 µg/mL (≈ 5.27 µM) | 2 µg/mL (≈ 5.27 µM) | 1 µg/mL (≈ 2.64 µM) | 4 µg/mL (≈ 10.5 µM) | 4 µg/mL (≈ 10.5 µM) | 4 µg/mL (≈ 10.5 µM) | 0.25 µg/mL (≈ 0.659 µM) | 4 µg/mL (≈ 10.5 µM) | 256 µg/mL (≈ 675 µM) | 256 µg/mL (≈ 675 µM) | 1 µg/mL (≈ 2.64 µM) | < 3% | Active | Active | Active
CC(C)=CCn1c2ccccc2c2c(OCc3nnn[nH]3)cccc21 | 32 µg/mL (≈ 96 µM) | 16 µg/mL (≈ 48 µM) | 256 µg/mL (≈ 768 µM) | 64 µg/mL (≈ 192 µM) | 32 µg/mL (≈ 96 µM) | 0.5 µg/mL (≈ 1.5 µM) | 32 µg/mL (≈ 96 µM) | 32 µg/mL (≈ 96 µM) | 256 µg/mL (≈ 768 µM) | 256 µg/mL (≈ 768 µM) | 128 µg/mL (≈ 384 µM) |  |  |  | 
C=CCSc1nnc2c3ccccc3n(Cc3nnc(S)o3)c2n1 | 256 µg/mL (≈ 718 µM) | 256 µg/mL (≈ 718 µM) | 256 µg/mL (≈ 718 µM) | 256 µg/mL (≈ 718 µM) | 256 µg/mL (≈ 718 µM) | 256 µg/mL (≈ 718 µM) | 256 µg/mL (≈ 718 µM) | 256 µg/mL (≈ 718 µM) | 256 µg/mL (≈ 718 µM) | 256 µg/mL (≈ 718 µM) | 256 µg/mL (≈ 718 µM) |  |  |  | 
Fc1ccc(COc2cccc3c2c2ccccc2n3Cc2nnc(S)o2)c(F)c1 | 64 µg/mL (≈ 151 µM) | 32 µg/mL (≈ 75.6 µM) | 64 µg/mL (≈ 151 µM) | 64 µg/mL (≈ 151 µM) | 32 µg/mL (≈ 75.6 µM) | 0.25 µg/mL (≈ 0.59 µM) | 64 µg/mL (≈ 151 µM) | 128 µg/mL (≈ 302 µM) | 128 µg/mL (≈ 302 µM) | 256 µg/mL (≈ 605 µM) | 16 µg/mL (≈ 37.8 µM) |  |  |  | 
Fc1cccc(COc2cccc3c2c2ccccc2n3Cc2nnc(S)o2)c1 | 64 µg/mL (≈ 158 µM) | 64 µg/mL (≈ 158 µM) | 32 µg/mL (≈ 78.9 µM) | 32 µg/mL (≈ 78.9 µM) | 32 µg/mL (≈ 78.9 µM) | 0.5 µg/mL (≈ 1.23 µM) | 128 µg/mL (≈ 316 µM) | 128 µg/mL (≈ 316 µM) | 128 µg/mL (≈ 316 µM) | 256 µg/mL (≈ 631 µM) | 16 µg/mL (≈ 39.5 µM) |  |  |  | 
CCOc1cccc2c1c1ccccc1n2Cc1nnc(S)o1 | 0.25 µg/mL (≈ 0.768 µM) | 1 µg/mL (≈ 3.07 µM) | 1 µg/mL (≈ 3.07 µM) | 16 µg/mL (≈ 49.2 µM) | 32 µg/mL (≈ 98.3 µM) | 256 µg/mL (≈ 787 µM) | 0.5 µg/mL (≈ 1.54 µM) | 0.5 µg/mL (≈ 1.54 µM) | 64 µg/mL (≈ 197 µM) | 256 µg/mL (≈ 787 µM) | 0.25 µg/mL (≈ 0.768 µM) | < 3% | Active |  | Active
CCCCOc1cccc2c1c1ccccc1n2Cc1nnc(S)o1 | 0.25 µg/mL (≈ 0.707 µM) | 256 µg/mL (≈ 724 µM) | 4 µg/mL (≈ 11.3 µM) | 256 µg/mL (≈ 724 µM) | 256 µg/mL (≈ 724 µM) | 256 µg/mL (≈ 724 µM) | 256 µg/mL (≈ 724 µM) | 256 µg/mL (≈ 724 µM) | 256 µg/mL (≈ 724 µM) | 256 µg/mL (≈ 724 µM) | 256 µg/mL (≈ 724 µM) |  |  |  | 
CCCOc1cccc2c1c1ccccc1n2Cc1nnc(S)o1 | 0.25 µg/mL (≈ 0.737 µM) | 2 µg/mL (≈ 5.89 µM) | 2 µg/mL (≈ 5.89 µM) | 2 µg/mL (≈ 5.89 µM) | 4 µg/mL (≈ 11.8 µM) | 4 µg/mL (≈ 11.8 µM) | 4 µg/mL (≈ 11.8 µM) | 4 µg/mL (≈ 11.8 µM) | 128 µg/mL (≈ 377 µM) | 256 µg/mL (≈ 754 µM) | 1 µg/mL (≈ 2.95 µM) |  |  |  | 
CCn1cc(C(=O)O)c(=O)c2cc(F)c(N3CCNCC3)cc21 [NORFLOXACIN] | 128 µg/mL (≈ 401 µM) | 0.5 µg/mL (≈ 1.57 µM) | 2 µg/mL (≈ 6.26 µM) | 1 µg/mL (≈ 3.13 µM) | 4 µg/mL (≈ 12.5 µM) | 128 µg/mL (≈ 401 µM) | 4 µg/mL (≈ 12.5 µM) | 0.25 µg/mL (≈ 0.783 µM) | 2 µg/mL (≈ 6.26 µM) | 8 µg/mL (≈ 25.1 µM) | 2 µg/mL (≈ 6.26 µM) |  |  |  | 
CCCCCOc1cccc2c1c1ccccc1n2Cc1nnc(S)o1 | 128 µg/mL (≈ 348 µM) | 256 µg/mL (≈ 697 µM) | 256 µg/mL (≈ 697 µM) | 256 µg/mL (≈ 697 µM) | 256 µg/mL (≈ 697 µM) | 256 µg/mL (≈ 697 µM) | 256 µg/mL (≈ 697 µM) | 256 µg/mL (≈ 697 µM) | 256 µg/mL (≈ 697 µM) | 256 µg/mL (≈ 697 µM) | 256 µg/mL (≈ 697 µM) |  |  |  | 
